Experimental data taken from PubChem BioAssay (NCI).
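Tested at 5 concentrations; 48 h exposure; 96-well plates; endpoints linearly interpolated, else capped at highest concentration. TGI marks complete inhibition of growth.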

Legend:
Assay in all cases: DTP human tumour cell line panel, 48 h
[1] = system: DU-145 prostate
[2] = system: HL-60(TB) leukemia
[3] = system: HOP-62 NSCLC
[4] = system: LOX IMVI melanoma
[5] = system: MDA-MB-435
[6] = system: MDA-N
[7] = system: RXF 393 renal
[8] = system: SN12C renal
[9] = system: SNB-19 CNS
[10] = system: UACC-62 melanoma

| SMILES | TGI [1] | TGI [2] | TGI [3] | TGI [4] | TGI [5] | TGI [6] | TGI [7] | TGI [8] | TGI [9] | TGI [10] |
| --- | --- | --- | --- | --- | --- | --- | --- | --- | --- | --- |
| Cc1ccc(C2(O)c3ccccc3C(=O)N(C)C2(O)c2ccc(C)cc2)cc1 (stereo not given) | > 100 µM | 40.3 µM | 49.5 µM | > 100 µM | > 100 µM | > 100 µM | > 100 µM | > 100 µM | 64.1 µM | > 100 µM |
| COc1ccccc1C1C2=C(COC2=O)Oc2cc3c(cc21)OCO3 (stereo not given) | > 42.4 µM | 11.6 µM | > 100 µM | > 100 µM | 0.947 µM | 0.763 µM | 6.13 µM | > 100 µM | 72.3 µM | > 100 µM |
| O=Cc1c2c(cc3c1CC1(C3)Cc3cc4c(c(C=O)c3C1)CCCC4)CCCC2 | > 100 µM | > 100 µM | > 31.6 µM | > 31.6 µM | > 31.6 µM | > 31.6 µM | > 31.6 µM | > 31.6 µM | > 100 µM | > 31.6 µM |
| Cc1cccc2c(N)c3cccc(C(=O)NCC[N+](C)(C)Cc4ccc([N+](=O)[O-])n4C)c3nc12 | > 75.3 µM | 29.2 µM | 61.7 µM | > 64.9 µM | > 85.2 µM | > 81.2 µM | > 72.7 µM | > 57.3 µM | > 100 µM | > 79.6 µM |
| COc1ccccc1-n1cnc2c1NC(C)(C)N=C2C(N)=O | > 100 µM | > 100 µM | > 100 µM | > 100 µM | > 100 µM | > 100 µM | > 100 µM | > 100 µM | > 100 µM | > 100 µM |
| O=c1oc2ccc([N+](=O)[O-])cc2nc1/C=C(\O)c1ccccc1 | > 100 µM | > 100 µM | > 100 µM | > 100 µM | > 100 µM | > 100 µM | > 100 µM | > 100 µM | > 100 µM | > 100 µM |
| COC(=O)[C@H](CNC(=O)/C=C/c1ccc(OC(C)=O)c(OC(C)=O)c1)NC(=O)/C=C/c1ccc(OC(C)=O)c(OC(C)=O)c1 | > 100 µM | > 100 µM | > 100 µM | > 100 µM | > 100 µM | > 100 µM | > 100 µM | > 100 µM | > 100 µM | > 100 µM |
| C=C1C(=O)OC2C1CCC(=C)C1CC(O)C(=C)C12 (stereo not given) | 29 µM | 5.79 µM | 49.8 µM | 20.9 µM | 58.8 µM | 26.7 µM | 29.9 µM | 31.9 µM | 66.6 µM | 26.6 µM |
| COc1ccccc1N1CCN(CCCCNC(=O)c2ccc([N+](=O)[O-])o2)CC1 | 16.4 µM | 26.1 µM | 16.5 µM | 16.3 µM | 12 µM | 13.6 µM | 25.2 µM | 17.4 µM | 25.5 µM | 18.4 µM |
| CC12NC(=C(C#N)C#N)C(C#N)=C3NC(N)=C(C#N)C(=C31)Oc1ccccc12 (stereo not given) | > 100 µM | > 74.9 µM | > 38.3 µM | > 100 µM | > 100 µM | > 31.6 µM | 6.76 µM | > 100 µM | > 100 µM | > 100 µM |
| CCCNC1=C2C[C@@H](C)C[C@@H](OC)[C@@H](OC(=O)CCCN)[C@H](C)/C=C(\C)[C@@H](OC(N)=O)[C@H](OC)/C=C\C=C(/C)C(=O)NC(=CC1=O)C2=O | 26.3 µM | 8.01 µM | 31.3 µM | > 48.3 µM | 32.2 µM | 30.1 µM | 33.3 µM | > 48.8 µM | 29.7 µM | 29.4 µM |
| COC(=O)C1OC(O[C@H]2CC[C@]3(C)[C@H]4CC=C5[C@@H]6CC(C)(C)CC[C@]6(C(=O)OC)CC[C@@]5(C)[C@]4(C)CC[C@H]3C2(C)C)C(O)C(O)C1O (stereo not given in full) | 27.9 µM | 36.7 µM | 31.9 µM | 20 µM | 30 µM | 30.9 µM | 18.2 µM | 26.8 µM | 31.1 µM | 31 µM |
| c1ccc(CN2CCC(=NN3CCCCC3)CC2)cc1 | > 100 µM | 43.9 µM | > 100 µM | > 100 µM | > 100 µM | > 100 µM | > 100 µM | > 100 µM | > 100 µM | > 100 µM |
| O=C(N/N=C(/COc1ccccc1)N=Cc1ccncc1)c1ccncc1 | > 100 µM | > 100 µM | > 100 µM | > 100 µM | > 100 µM | > 100 µM | > 100 µM | > 100 µM | > 100 µM | > 100 µM |
| C=C1CC[C@@]2(C)[C@@H]([C@@H]1C)[C@H]1CC[C@@H]3[C@@]4(C)CC[C@H](O)C(C)(C)[C@@H]4CC[C@@]3(C)[C@]1(C)C[C@@H]2O | 17.5 µM | > 55.7 µM | 9.18 µM | 3.47 µM | 26 µM | > 51.5 µM | 4.04 µM | > 100 µM | 8.44 µM | 28.2 µM |
| O=[N+]([O-])c1cc(Br)cc2cc(Cl)cnc12 | > 100 µM | > 100 µM | > 100 µM | > 100 µM | > 100 µM | > 100 µM | > 100 µM | > 100 µM | > 100 µM | > 100 µM |
| CC(NC(=O)Cc1ccc(OP(=O)(OCc2ccc([N+](=O)[O-])o2)N(C)CCCCCl)cc1)c1ccc(OCC2CCCCC2)c(C(N)=O)c1 (stereo not given) | 14.4 µM | 5.06 µM | 6.07 µM | 3.28 µM | 3.95 µM | 3.94 µM | 4.74 µM | 4.26 µM | 22.1 µM | 3.28 µM |
| Cn1c(N/N=C/c2ccccc2)nc(-c2ccc3c(c2)OCO3)c(C#N)c1=O | > 100 µM | > 100 µM | > 100 µM | > 100 µM | > 100 µM | > 100 µM | > 100 µM | > 100 µM | > 100 µM | > 100 µM |
| CC(C)C[S+]1C2=C([O-])CC(C)(C)CC2=Nc2ccccc21 (stereo not given) | > 100 µM | > 100 µM | > 100 µM | > 100 µM | > 100 µM | > 100 µM | > 100 µM | > 100 µM | > 100 µM | > 100 µM |
| CC[C@H](C)[C@H](NC(=O)N(CCC#N)CCN(CCN(C(=O)N[C@@H](Cc1ccccc1)C(=O)OC)c1ccccc1)C(=O)N[C@H](C(=O)OC)C(C)C)C(=O)OC | 41.2 µM | 4.24 µM | 44.9 µM | 37.4 µM | 36.3 µM | 31.7 µM | 37.8 µM | 54.5 µM | 35.9 µM | 28.6 µM |
| O=C1CC(c2ccc(Cl)cc2)C2(C(=O)NC(=S)NC2=O)C(c2ccc(Cl)cc2)C1 (stereo not given) | > 100 µM | 57.2 µM | 54.7 µM | > 100 µM | 39.9 µM | 34.1 µM | 29.4 µM | 40.6 µM | 36.6 µM | 34.4 µM |
| C/C=C/CC(C(=O)OCC)(N(C)C(=O)OC(C)(C)C)S(=O)(=O)c1ccc(C)cc1 (stereo not given) | > 100 µM | > 100 µM | > 100 µM | > 100 µM | 83 µM | 48 µM | > 100 µM | > 100 µM | > 100 µM | > 100 µM |
| C[C@@H]1C[C@H]2OC(=O)[C@@]3(C)CCC[C@@](C)([C@@H]23)[C@@]1(O)CCc1ccoc1 | > 100 µM | > 88.6 µM | > 100 µM | > 100 µM | > 100 µM | > 100 µM | > 100 µM | > 100 µM | > 100 µM | > 100 µM |
| Nc1nc(Cl)cc(NCC2(CO)CCCCC2)n1 | > 100 µM | > 100 µM | > 100 µM | > 100 µM | > 100 µM | > 100 µM | > 100 µM | > 100 µM | > 100 µM | > 100 µM |
| COc1ccc(-c2nc(-c3ccc(OC)cc3)n(-c3ccccc3)n2)cc1 | > 100 µM | > 100 µM | > 100 µM | > 100 µM | > 100 µM | > 100 µM | > 100 µM | > 100 µM | > 100 µM | > 100 µM |
| CCO/C(O)=C(/C(=N)N1CCOCC1)C(=O)Nc1cccc(C(F)(F)F)c1 | > 100 µM | > 100 µM | > 100 µM | > 100 µM | > 100 µM | > 100 µM | > 100 µM | > 100 µM | > 100 µM | > 100 µM |
